Measurements reported in the CheMixHub viscosity set.

Test: xn = mol fraction of the nth substance listed

Cc1cccc(O)c1 + CC(=O)O
viscosity [mPa·s], 101 kPa
Conditions	x2 = 0.1684	x2 = 0.313	x2 = 0.4385	x2 = 0.5485	x2 = 0.6457	x2 = 0.7321	x2 = 0.8096	x2 = 0.8794	x2 = 0.9425
298.15 K	8.835	6.522	5.086	4.131	3.438	2.895	2.425	1.996	1.602
308.15 K	5.453	4.462	3.486	3.298	2.87	2.483	2.143	1.811	1.437
318.15 K	4.444	3.818	3.302	2.942	2.618	2.31	1.945	1.625	1.22

[Br-].[Br-].[Br-].[Sb+3] + Nc1ccccc1
323.15 K, 101 kPa
Conditions	viscosity [mPa·s]
x1 = 0.1	6.997
x1 = 0.25	182.4
x1 = 0.333	2175
x1 = 0.4	7012
x1 = 0.45	20680
x1 = 0.47	23030
x1 = 0.49	24420
x1 = 0.5	24690
x1 = 0.51	20780
x1 = 0.53	16040
x1 = 0.55	7888
x1 = 0.6	3022
x1 = 0.75	272.9

CC(=O)c1ccc(C)cc1 + CCNc1ccccc1
303.15 K, 100 kPa
Conditions	viscosity [mPa·s]
x2 = 0.0838	1.587
x2 = 0.1427	1.592
x2 = 0.2179	1.601
x2 = 0.2904	1.608
x2 = 0.3608	1.616
x2 = 0.4284	1.625
x2 = 0.4942	1.635
x2 = 0.5577	1.645
x2 = 0.6194	1.656
x2 = 0.6889	1.67
x2 = 0.7467	1.683
x2 = 0.8128	1.697
x2 = 0.9072	1.718

C[N+](=O)[O-] + CC(C)(C)O
viscosity [mPa·s], 101.33 kPa
Conditions	298.15 K	303.15 K	313.15 K
x2 = 0.05	0.609	0.569	0.511
x2 = 0.1002	0.611	0.567	0.506
x2 = 0.1502	0.642	0.573	0.508
x2 = 0.2	0.644	0.587	0.517
x2 = 0.2499	0.674	0.609	0.531
x2 = 0.3	0.749	0.638	0.549
x2 = 0.3503	0.793	0.672	0.573
x2 = 0.4	0.87	0.714	0.601
x2 = 0.4501	0.894	0.761	0.633
x2 = 0.5001	0.972	0.819	0.671
x2 = 0.55	1.072	0.886	0.717
x2 = 0.6001	1.154	0.962	0.811
x2 = 0.6499	1.219	1.057	0.829
x2 = 0.7	1.361	1.174	0.885
x2 = 0.75	1.557	1.32	0.966
x2 = 0.8	1.776	1.491	1.106
x2 = 0.85	2.079	1.72	1.244
x2 = 0.8999	2.51	2.05	1.442
x2 = 0.95	3.194	2.527	1.697

CCCCOCCOCCOCCO + ClC=C(Cl)Cl
298.15 K, 101.33 kPa
Conditions	viscosity [mPa·s]
x1 = 0.008	0.55
x1 = 0.0207	0.583
x1 = 0.0326	0.62
x1 = 0.0484	0.671
x1 = 0.0692	0.742
x1 = 0.0868	0.809
x1 = 0.1122	0.913
x1 = 0.1472	1.064
x1 = 0.1817	1.242
x1 = 0.2132	1.421
x1 = 0.2487	1.641
x1 = 0.2772	1.839
x1 = 0.3104	2.088
x1 = 0.3418	2.329
x1 = 0.3841	2.663
x1 = 0.4202	2.968
x1 = 0.4555	3.288
x1 = 0.4882	3.585
x1 = 0.5244	3.929
x1 = 0.5826	4.489
x1 = 0.6409	5.1
x1 = 0.6866	5.591
x1 = 0.7428	6.2
x1 = 0.8128	6.968
x1 = 0.8883	7.84
x1 = 0.9261	8.238
x1 = 0.967	8.732
x2 = 0.0136	8.939

O=S(=O)([N-]S(=O)(=O)C(F)(F)F)C(F)(F)F.On1cc[n+](O)c1 + CCCO
100 kPa
Conditions	viscosity [mPa·s]
293.15 K, x1 = 0.3992	31.05
293.15 K, x1 = 0.5999	65.75
303.15 K, x1 = 0.7996	77.95
313.15 K, x1 = 0.4985	20.85

C[Si]1(C)O[Si](C)(C)O[Si](C)(C)O[Si](C)(C)O[Si](C)(C)O[Si](C)(C)O1 + C[Si](C)(C)O[Si](C)(C)O[Si](C)(C)O[Si](C)(C)C
Conditions	viscosity [mPa·s]
298.15 K, 101 kPa, x2 = 0.457	3.47

Cc1cccc(O)c1 + Nc1ccccc1
298.15 K, 101 kPa
Conditions	viscosity [mPa·s]
x1 = 0.3	6.799
x1 = 0.374	8.194
x1 = 0.461	9.622
x1 = 0.549	11.12
x1 = 0.631	12.2
x1 = 0.778	12.31

C[N+](=O)[O-] + CCCO
viscosity [mPa·s]
Conditions	293.15 K	298.15 K	303.15 K	313.15 K
101 kPa, x1 = 0.1338	–	1.55	–	–
101 kPa, x1 = 0.2584	–	1.24	–	–
101 kPa, x1 = 0.3737	–	1.011	–	–
101 kPa, x1 = 0.4815	–	0.8394	–	–
101 kPa, x1 = 0.5819	–	0.7389	–	–
101 kPa, x1 = 0.6764	–	0.6772	–	–
101 kPa, x1 = 0.7649	–	0.6555	–	–
101 kPa, x1 = 0.8479	–	0.6441	–	–
101 kPa, x1 = 0.9262	–	0.6388	–	–
101.33 kPa, x2 = 0.0501	0.636	–	0.565	0.508
101.33 kPa, x2 = 0.1001	0.633	–	0.56	0.501
101.33 kPa, x2 = 0.1501	0.64	–	0.563	0.502
101.33 kPa, x2 = 0.2	0.656	–	0.574	0.508
101.33 kPa, x2 = 0.25	0.681	–	0.591	0.519
101.33 kPa, x2 = 0.3001	0.713	–	0.612	0.534
101.33 kPa, x2 = 0.3501	0.753	–	0.639	0.553
101.33 kPa, x2 = 0.4001	0.795	–	0.67	0.576
101.33 kPa, x2 = 0.45	0.843	–	0.704	0.6
101.33 kPa, x2 = 0.5	0.892	–	0.74	0.629
101.33 kPa, x2 = 0.5501	0.949	–	0.785	0.661
101.33 kPa, x2 = 0.6001	1.01	–	0.832	0.697
101.33 kPa, x2 = 0.65	1.081	–	0.886	0.739
101.33 kPa, x2 = 0.7	1.162	–	0.95	0.789
101.33 kPa, x2 = 0.75	1.26	–	1.023	0.845
101.33 kPa, x2 = 0.8	1.375	–	1.112	0.912
101.33 kPa, x2 = 0.85	1.519	–	1.218	0.993
101.33 kPa, x2 = 0.9	1.693	–	1.349	1.094
101.33 kPa, x2 = 0.95	1.911	–	1.51	1.214

ClC1CCCCC1 + CC(C)CO
viscosity [mPa·s], 101.33 kPa
Conditions	x1 = 0.1018	x1 = 0.2015	x1 = 0.3066	x1 = 0.4073	x1 = 0.5034	x1 = 0.5996	x1 = 0.7053	x1 = 0.8003	x1 = 0.8949
298.15 K	2.771	2.342	2.035	1.835	1.687	1.597	1.525	1.5	1.5
313.15 K	1.784	1.555	1.393	1.284	1.223	1.181	1.146	1.132	1.144

C[N+](=O)[O-] + CCO
viscosity [mPa·s]
Conditions	293.15 K	298.15 K	303.15 K	313.15 K
101 kPa, x1 = 0.1074	–	0.9963	–	–
101 kPa, x1 = 0.2135	–	0.9148	–	–
101 kPa, x1 = 0.3174	–	0.84	–	–
101 kPa, x1 = 0.4199	–	0.777	–	–
101 kPa, x1 = 0.5202	–	0.7236	–	–
101 kPa, x1 = 0.6192	–	0.6847	–	–
101 kPa, x1 = 0.7167	–	0.6557	–	–
101 kPa, x1 = 0.8126	–	0.6418	–	–
101 kPa, x1 = 0.9071	–	0.637	–	–
101.33 kPa, x2 = 0.0501	0.625	–	0.553	0.501
101.33 kPa, x2 = 0.1001	0.609	–	0.538	0.486
101.33 kPa, x2 = 0.15	0.602	–	0.53	0.477
101.33 kPa, x2 = 0.2	0.601	–	0.527	0.472
101.33 kPa, x2 = 0.2501	0.604	–	0.527	0.471
101.33 kPa, x2 = 0.3001	0.612	–	0.531	0.472
101.33 kPa, x2 = 0.3502	0.622	–	0.538	0.476
101.33 kPa, x2 = 0.4008	0.636	–	0.547	0.482
101.33 kPa, x2 = 0.4501	0.653	–	0.561	0.491
101.33 kPa, x2 = 0.5001	0.672	–	0.577	0.502
101.33 kPa, x2 = 0.55	0.695	–	0.594	0.516
101.33 kPa, x2 = 0.6	0.72	–	0.612	0.531
101.33 kPa, x2 = 0.65	0.75	–	0.633	0.547
101.33 kPa, x2 = 0.7	0.785	–	0.665	0.569
101.33 kPa, x2 = 0.75	0.825	–	0.698	0.595
101.33 kPa, x2 = 0.8	0.872	–	0.732	0.625
101.33 kPa, x2 = 0.85	0.936	–	0.782	0.662
101.33 kPa, x2 = 0.9	1.006	–	0.835	0.705
101.33 kPa, x2 = 0.95	1.086	–	0.901	0.759

Cc1cccc(O)c1 + Cc1ccccc1N
298.15 K, 101 kPa
Conditions	viscosity [mPa·s]
x1 = 0.33	8.06
x1 = 0.496	11.21
x1 = 0.662	13.84
x1 = 0.751	13.76
